{
  "source": "patent US8030294B2",
  "about": "“Compounds for the treatment of psychiatric or substance abuse disorders” (The McLean Hospital Corporation, priority 2000, dated 2011)",
  "key": {"[1]": {"conditions": "in vivo; cited from earlier work"}, "[2]": {"conditions": "in vivo; cited from earlier work", "remark": "listed apart in the source"}, "[3]": {"assay": "Forced swim test (FST), a rodent model of depression", "type": "in vivo", "conditions": "rats, IP; for effect in the forced swim test: citicoline 50-500 mg/kg, molar equivalent cytidine 23.8-238 mg/kg, choline 13.7-136.6 mg/kg", "description": "The effects of citicoline were examined in the forced swim test (FST), a rodent model of depression."}, "[4]": {"assay": "17-item Hamilton Depression Rating Scale (HDRS) in depressed subjects", "type": "in vivo, human", "conditions": "eight weeks, CDP-choline 6/12, fluoxetine 17/41", "protocol": "In a second study, twelve depressed subjects (mean age 40) received 500 mg of an oral formulation of CDP-choline twice daily for eight weeks."}, "[5]": {"conditions": "cited from earlier work"}, "[6]": {"conditions": "cited from earlier work", "remark": "listed apart in the source"}, "brain phosphodiesters": {"system": "brain phosphodiesters", "assay": "Phosphorus-31 MR spectroscopy of brain lipid metabolite resonances in healthy subjects", "type": "in vivo, human", "conditions": "healthy subjects (mean age 70), 500 mg oral daily, 6 to 12 weeks; p=0.008", "protocol": "To assess whether chronic CDP-choline administration leads to detectable changes in lipid metabolite resonances in phosphorus-31 MR spectra, eighteen healthy subjects (mean age: 70) were administered 500 mg of an oral formulation of CDP-choline daily for a six week period. From weeks 6 to 12, half of the subjects continued to receive CDP-choline and half received placebo in a double-blind fashion. […] CDP-choline administration, therefore, improves measures of verbal fluency and spatial memory in healthy adults and results in increased brain phospholipid synthesis in older adults, particularly during chronic administration."}, "[7]": {"system": "regional blood volume in putamen, caudate and thalamus", "assay": "T2 relaxometry (T2-RT) fMRI in children with ADHD", "type": "in vivo, human", "conditions": "ADHD boys, vs placebo; P>0.7", "text": "A new fMRI procedure (T2 relaxometry or “T2-RT”) was developed to indirectly assess blood volume in the striatum (caudate and putamen) of boys 6-12 years of age under steady-state conditions. […] Children with ADHD were included if they met criteria for ADHD on structured diagnostic interview, and had at least 6 of 9 symptoms of inattention or hyperactivity-impulsivity. Children with ADHD took part in a triple blind (parent, child, rater), randomized, placebo-controlled study of effects of methylphenidate (0, 0.5, 0.8, 1.5 mg/kg in divided dose) on activity, attention, and fMRI. Children with ADHD were treated continuously for one week with placebo or a specific dose of methylphenidate and at the end of the week were tested for drug efficacy using objective measures of attention and activity and fMRI (See Methods) within 1-3 hours of their afternoon dose. The time between dose and testing was held constant for each subject throughout the four treatment conditions. Activity and attention were evaluated in unmedicated healthy controls using the same procedure as children with ADHD, and fMRI followed within the same time frame.\nT2 relaxometry, a novel FMRI procedure, was used to derive steady state blood flow measures and to test for enduring medication effects. […]"}, "[8]": {"assay": "Continuous performance task (CPT), a measure of attention, in children with ADHD", "type": "in vivo, human", "conditions": "ADHD boys (n=11), one week", "protocol": "(§1) A new fMRI procedure (T2 relaxometry or “T2-RT”) was developed to indirectly assess blood volume in the striatum (caudate and putamen) of boys 6-12 years of age under steady-state conditions. Six healthy control boys (10.2±1.5 yr) and eleven boys diagnosed with ADHD (9.3±1.6 yr) served as subjects in the study to examine fMRI differences between unmedicated healthy controls and ADHD children on either placebo or the highest dose of methylphenidate. […] Activity and attention were evaluated in unmedicated healthy controls using the same procedure as children with ADHD, and fMRI followed within the same time frame.\n(§2) Highly accurate laboratory-based measures of activity and attention were obtained by having the children perform a computerized vigilance test while an infrared motion analysis system captured and recorded movements (see Methods). […]\n(§3) Assessment of Activity and Attention. […] In brief, children sat in front of a computer and were evaluated using a simple GO/NO-GO CPT in which the subject responds to visual presentation of a target and withholds response to a non-target stimuli that appear in the center of the screen at a fixed 2 second […] interval (Greenberg et al., Psychopharmacol. Bull. 23: 279-282,1987). […]"}, "[9]": {"assay": "Infrared motion analysis of activity during CPT in children with ADHD", "type": "in vivo, human", "conditions": "ADHD boys (n=11) vs placebo; P<0.05", "protocol": "as §1, §2, §3"}},
  "data": [
    {"smiles": "O=c1ccn([C@@H]2O[C@H](CO)[C@@H](O)[C@H]2O)c(=O)[nH]1", "note": "[uridine]", "values": [
      {"measurement": "tolerability in mammals", "setting": "[1]", "result": "well tolerated"},
      {"measurement": "tolerability in humans", "setting": "[2]", "result": "well tolerated"}
    ]},
    {"smiles": "Nc1ccn([C@@H]2O[C@H](CO)[C@@H](O)[C@H]2O)c(=O)n1", "note": "[cytidine]", "values": [
      {"measurement": "effect in the forced swim test", "setting": "[3]", "result": "significant antidepressant effects"}
    ]},
    {"smiles": "C[N+](C)(C)CCOP(=O)(O)OP(=O)([O-])OC[C@H]1O[C@@H](n2ccc(N)nc2=O)[C@H](O)[C@@H]1O", "note": "[CDP-choline, cytidine 5′-diphosphocholine]", "values": [
      {"measurement": "effect in the forced swim test at high doses", "setting": "[3]; high doses", "result": "small pro-depressant effects"},
      {"measurement": "effect in the forced swim test", "setting": "[3]", "result": "did not have antidepressant effects"},
      {"measurement": "complete responses (share of subjects)", "setting": "[4]", "result": 50, "unit": "%"},
      {"measurement": "tolerability in mammals", "setting": "[1]", "result": "well tolerated"},
      {"measurement": "conversion into the two major circulating metabolites, choline and cytidine", "setting": "[5]; orally or intravenously", "result": "rapidly converted"},
      {"measurement": "excretion via lung", "setting": "[5]; share of dose", "result": 12.9, "unit": "%"},
      {"measurement": "excretion via urine", "setting": "[5]; share of dose", "result": 2.4, "unit": "%"},
      {"measurement": "reported cases of overdoses", "setting": "[6]; in vivo", "result": "no reported cases of overdoses"},
      {"measurement": "symptoms on ingestion of large amounts", "setting": "[6]; preclinical studies, salivation, lacrimation, urination, defecation, vomiting", "result": "common cholinergic symptoms"},
      {"measurement": "brain phosphodiesters", "setting": "brain phosphodiesters", "result": "significant increase"}
    ]},
    {"smiles": "CNCCC(Oc1ccc(C(F)(F)F)cc1)c1ccccc1", "note": "(centres unmarked) [fluoxetine]", "values": [
      {"measurement": "complete responses (share of subjects)", "setting": "[4]", "result": 41, "unit": "%"}
    ]},
    {"smiles": "COC(=O)C(c1ccccc1)C1CCCCN1", "note": "(centres unmarked) [methylphenidate]", "values": [
      {"measurement": "T2-RT in thalamus", "setting": "[7]", "result": "not affected"},
      {"measurement": "CPT performance accuracy", "setting": "[8]; highest dose vs placebo, P<0.05", "result": "enhancing performance accuracy"},
      {"measurement": "response variability (S.D.) of CPT response latency", "setting": "[8]; reduced from 242 on placebo, P<0.005", "result": 149, "unit": "ms"},
      {"measurement": "complexity of the movement pattern", "setting": "[9]", "result": "increasing the complexity of the movement pattern"}
    ]},
    {"smiles": "CN(CC(=O)O)C(=N)N", "note": "[Creatine, creatine]", "values": [
      {"measurement": "tolerability in humans", "setting": "[2]", "result": "well tolerated at relatively high doses"}
    ]},
    {"smiles": "CC(=O)OC[C@H]1O[C@@H](n2ccc(=O)[nH]c2=O)[C@H](OC(C)=O)[C@@H]1OC(C)=O", "note": "[triacetyl uridine]", "values": [
      {"measurement": "tolerability in mammals", "setting": "[1]", "result": "well tolerated"}
    ]}
  ]
}
